Test results taken from patent US8853172B2, “Anti-plant-virus agent” (National University Corporation Hokkaido University, priority 2009, dated 2014).

Columns and labels:
Type in all cases: in vivo
Turnip mosaic virus [1] = assay: Experiment I: spraying before and after inoculation of Arabidopsis thaliana with Turnip mosaic virus (inoculation solution A), onset of symptoms; conditions: for columns that showed symptoms / columns that were healthy: Arabidopsis thaliana (Columbia), seven columns inoculated, 20 mM sprayed on days 3 and 1 before and 1, 3, 5, 8, 10 after inoculation, observed on the 14th day
Method: (§1) Each of the frozen tobacco leaves infected with Turnip mosaic virus and Cucumber mosaic virus (Y strain) was triturated in 0.1M phosphate-buffer solution at a 10-fold amount (containing 10 mM diethyldithiocarbamic acid (DIECA)). These were defined as virus inoculation solutions A and B. These virus inoculation solutions A and B are solutions causing a 100% incidence.
(§2) Three expanded leaves per one column of Arabidopsis thaliana (Columbia) were inoculated with each virus via the aforementioned virus inoculation solutions A and B by the carborundum method.
(§3) On the 3rd day and the 1st day prior to the date of the virus inoculation, and on the 1st day, the 3rd day, the 5th day, the 8th day and the 10th days after the date of the virus inoculation, an aqueous solution of 0.1% of a spreading agent (Approach BI: manufactured by Kao Corporation) was sprayed thereon.
(§4) On the 14th day after the virus inoculation, the presence or absence of disease symptoms such as yellow mosaic of new leaves, leaf curling, and plant stunting was observed. […] It can be seen that the above virus inoculation solutions A and B are strong solutions in view of the fact that the inoculation with the solutions reliably causes the onset of symptoms.
(§5) Each was dissolved in water so as to be 20 mM ascorbic acid and 0.1% of a spreading agent (Approach BI: manufactured by Kao Corporation), thereby obtaining an aqueous solution of ascorbic acid. Except that the aqueous solution of ascorbic acid was sprayed onto Arabidopsis thaliana instead of the aqueous solution of the spreading agent, in the same manner as Comparative Example 1, Turnip mosaic virus and Cucumber mosaic virus (Y strain) were inoculated onto Arabidopsis thaliana, and then the onset of symptoms was examined.
Ascorbic acid 6-palmitate, a nonionic surfactant (polyoxyethylene sorbitan monolaurate) and a spreading agent (Approach BI: manufactured by Kao Corporation) were dissolved in N,N-dimethylformamide. This solution was added to water to obtain an aqueous solution of the anti-plant virus agent comprising 20 mM ascorbic acid 6-palmitate, 0.05% of a nonionic surfactant, 0.1% of a spreading agent, and 1% of N,N-dimethylformamide. Except that the aqueous solution of the anti-plant virus agent was sprayed thereon instead of the aqueous solution of ascorbic acid, in the same manner as Comparative Example 2, Turnip mosaic virus and Cucumber mosaic virus (Y strain) were inoculated onto Arabidopsis thaliana, and then the onset of symptoms was examined.
Each was added to water so as to be 20 mM ascorbic acid 2-phosphate ester 3-sodium and 0.1% of a spreading agent (Approach BI: manufactured by Kao Corporation), thereby obtaining an aqueous solution of the anti-plant virus agent. Except that the aqueous solution of the anti-plant virus agent was sprayed thereon instead of the aqueous solution of ascorbic acid, in the same manner as Comparative Example 2, Turnip mosaic virus was inoculated onto Arabidopsis thaliana, and then the onset of symptoms was examined.

[2] = test system: Cucumber mosaic virus (Y strain); assay: Experiment I: spraying before and after inoculation of Arabidopsis thaliana with Cucumber mosaic virus (Y strain) (inoculation solution B), onset of symptoms; conditions: Arabidopsis thaliana (Columbia), seven columns inoculated, 20 mM sprayed on days 3 and 1 before and 1, 3, 5, 8, 10 after inoculation, observed on the 14th day
Method: as §1, §2, §3, §4, §5
Ascorbic acid 6-palmitate, a nonionic surfactant (polyoxyethylene sorbitan monolaurate) and a spreading agent (Approach BI: manufactured by Kao Corporation) were dissolved in N,N-dimethylformamide. […]

Turnip mosaic virus [3] = assay: Experiment III: therapeutic test, spraying after inoculation of Arabidopsis thaliana with Turnip mosaic virus (inoculation solution C); conditions: Arabidopsis thaliana (Columbia), ten columns inoculated, 20 mM sprayed on days 1, 4, 7 and 10 after inoculation, observed on the 16th day
Method: A nonionic surfactant (polyoxyethylene sorbitan monolaurate) and a spreading agent (Approach BI: manufactured by Kao Corporation) were dissolved in N,N-dimethylformamide. This solution was added to water to obtain an aqueous solution comprising 0.05% of a nonionic surfactant, 0.1% of a spreading agent, and 1% of N,N-dimethylformamide.
(§6) Two expanded leaves per one column of Arabidopsis thaliana (Columbia) were inoculated with the virus via the aforementioned virus inoculation solution C by the carborundum method.
On the 1st day, the 4th day, the 7th day and the 10th day after the date of the virus inoculation, the aforementioned aqueous solution was sprayed thereon.
On the 16th day after the date of the virus inoculation, the presence or absence of disease symptoms such as yellow mosaic of new leaves, leaf curling, plant stunting was observed.
Ascorbic acid 6-palmitate, a nonionic surfactant (polyoxyethylene sorbitan monolaurate) and a spreading agent (Approach BI: manufactured by Kao Corporation) were dissolved in N,N-dimethylformamide. This solution was added to water to obtain an aqueous solution of the anti-plant virus agent comprising 20 mM ascorbic acid 6-palmitate, 0.05% of a nonionic surfactant, 0.1% of a spreading agent, and 1% of N,N-dimethylformamide.
Except that the aqueous solution of the anti-plant virus agent was sprayed onto Arabidopsis thaliana instead of the aforementioned aqueous solution, in the same manner as Comparative Example 6, Turnip mosaic virus was inoculated onto Arabidopsis thaliana, and then the onset of the symptoms was examined.

[4] = test system: Tomato aspermy virus (V strain); assay: Experiment IV: spraying of tomato (cultivar Beiju) inoculated with Tomato aspermy virus (V strain); conditions: four columns inoculated, 2 mM sprayed every day for two weeks from inoculation, observed on the 30th day
Method: The frozen tobacco (Nicotiana benthamiana) infected with Tomato aspermy virus (V strain) was triturated in 0.1M phosphate-buffer solution at a 10-fold amount (containing 10 mM DIECA), and was filtered through a double gauze and the filtrate was defined as virus inoculation solution D. Onto fully expanded leaves of the seedling stage of tomato (cultivar: Beiju) after a period of two weeks from seeding, the virus inoculation solution D was inoculated by physical application via the carborundum method.
After the virus inoculation, as a result of examination of disease symptoms over time, mosaic or leaf curling could be recognized after the 5th day, and lethal necrosis symptoms were shown after the period of two weeks, and all of the five columns inoculated with Tomato aspermy virus (V strain) withered.
200 mM of ascorbic acid 6-palmitate was dissolved in N,N-dimethylformamide. This solution was diluted 100 times with distilled water to obtain an aqueous solution of the anti-plant virus agent comprising 2 mM ascorbic acid 6-palmitate and 1% of N,N-dimethylformamide. In the same manner as Comparative Example 7, the tomato was inoculated with tomato aspermy virus (V strain). During the two weeks from the date of virus inoculation, the aforementioned aqueous solution was sprayed thereon every day, and disease symptoms were examined over time. […]

Turnip mosaic virus [5] = assay: Experiment II: preventive test, spraying before inoculation of Arabidopsis thaliana with Turnip mosaic virus (inoculation solution C); conditions: for columns that showed symptoms / columns that were healthy: Arabidopsis thaliana (Columbia), ten columns inoculated, 20 mM sprayed on the 3rd and 1st day before inoculation, observed on the 16th day
Method: The frozen tobacco leaves infected with Turnip mosaic virus were triturated in 0.1M phosphate-buffer solution at a 10-fold amount (containing 10 mM DIECA). Then, this was diluted 50 times with the same buffer solution. This was defined as virus inoculation solution C.
as §6
On the 3rd day and the 1st day prior to the date of the virus inoculation, an aqueous solution of 0.1% a spreading agent (Approach BI: manufactured by Kao Corporation) was sprayed thereon.
On the 16th day after the date of the virus inoculation, the presence or absence of disease symptoms such as yellow mosaic of new leaves, leaf curling, and plant stunting was observed.
as §5, with “3,” for “1,”, “was” for “and Cucumber mosaic virus (Y strain) were”

Row | Structure (SMILES) | columns that showed symptoms (Turnip mosaic virus [1]) | columns that showed symptoms (Turnip mosaic virus [3]) | columns that were healthy (Turnip mosaic virus [3]) | columns that showed symptoms (Turnip mosaic virus [5]) | columns that were healthy (Turnip mosaic virus [5]) | further results
1 | CCCCCCCCCCCCCCCC(=O)OC[C@H](O)[C@H]1OC(=O)C(O)=C1O [ascorbic acid 6-palmitate] | five | one | nine | – | – | columns that were healthy (Turnip mosaic virus [1]): two; columns that showed symptoms [2]: five; columns that were healthy [2]: two; columns that were healthy [4]: two; columns that withered [4]: two
2 | CCCCCCCCCCCCCCCC(=O)OC[C@H](O)[C@H]1OC(=O)C(OC(=O)CCCCCCCCCCCCCCC)=C1O [ascorbic acid 2,6-dipalmitate] | – | one | nine | – | – | –
3 | CCCCCCCCC(CCCCCC)C(=O)OCC(OC(=O)C(CCCCCC)CCCCCCCC)C1OC(=O)C(OC(=O)C(CCCCCC)CCCCCCCC)=C1OC(=O)C(CCCCCC)CCCCCCCC (stereo not drawn) [ascorbyl 2,3,5,6-tetrahexyldecanoate] | – | one | nine | – | – | –
4 | O=C1O[C@H]([C@@H](O)CO)C([O-])=C1O.[Na+] [sodium ascorbate] | – | – | – | three | seven | –
5 | O=C1O[C@H]([C@@H](O)CO)C(O)=C1O[C@H]1O[C@H](CO)[C@@H](O)[C@H](O)[C@H]1O [ascorbic acid 2-glucoside] | – | – | – | one | nine | –
6 | CCCCCCCCCCCCCCCCCC(=O)OC[C@H](O)[C@H]1OC(=O)C(O)=C1O [ascorbic acid 6-stearate] | – | one | nine | – | – | –
7 | O=C1O[C@H]([C@@H](O)CO)C([O-])=C1OP(=O)([O-])[O-].[Na+].[Na+].[Na+] [ascorbic acid 2-phosphate ester 3-sodium] | five | – | – | – | ten | columns that were healthy (Turnip mosaic virus [1]): two
8 | O=C1O[C@H]([C@@H](O)CO)C(O)=C1O [ascorbic acid, reference compound] | seven | – | – | two | eight | anti-plant viral activity (conclusion in words) (Turnip mosaic virus [1]; Experiment I, 20 mM spray): does not have any anti-plant viral activity; columns that showed symptoms [2]: seven; anti-plant viral activity / preventive effect (conclusion in words) (Turnip mosaic virus [5]; Experiment II, 20 mM sprayed before inoculation): do not have any anti-plant viral activity
